Laboratory results from patent US9932339B2, “Helquats with heteroaromatic substituents, preparation thereof, and use thereof as G-quadruplex stabilizers” (USTAV ORGANICKE CHEMIE A BIOCHEMIE AV CR, V.V.I., priority 2014, dated 2018).
pIC50: −log10 of the molar value. Like-named read-outs stand apart in the source and are kept apart here.

Legend:
[1] = test system: G-quadruplex in promoter region of the c-myc gene (NHE III1 segment); experiment: Dual luciferase analysis with plasmid pGL4.10-myc (luc2) in HGC-27 cells; assay type: cell-based, human; conditions: for inhibition at 50 µM / activity at 50 µM: Homo sapiens; for inhibition at 50 µM: HGC-27, text summary of tab. 5 (50 μmol·l^−1), read-out: inhibition of expression of firefly luciferase as compared to control; for activity at 50 µM: read-out: luciferase expression relative to control (control = 100%)
Excerpt: A dual luciferase analysis was used to determine the degree of stabilization of G-quadruplex in a promoter region of the c-myc gene on cellular level. Stabilization of G-quadruplex is expressed as the ratio of expression of two luciferases (firefly and Renilla) from the co-transfected vectors pGL4.10-myc (luc2) and pRL-TK (Renilla) into a cell line HGC-27 expressing c-myc protein. Expression of the reporter gene (firefly luciferase) from pGL4.10-myc vector is controlled by the c-myc regulatory region of a length of 860 by (in the range from −306 to +554). The inserted sequence contains NHE III1 segment which forms G-quadruplex [Yang, D. et al. (2010) Future Med Chem., 2, 619], and is responsible for as much as 90% of the transcriptional activity of the c-myc gene.
Level of expression of firefly luciferase reporter gene corresponds to promoter activity of c-myc and thus to the degree of stabilization of the G-quadruplex. The signal is normalized to Renilla luciferase expression from pRL-TK vector under the control of a constitutive viral thymidine kinase (HSV-TK) promoter. The amount of Renilla luciferase expression serves as an internal control for normalization of firefly signal on transfection efficiency in the sample. Plasmids pGL4.10-myc (luc2) and pRL-TK were propagated in Escherichia coli (DH5α strain) and purified using the Qiagen Plasmid Mini and Midi kits. Cells were cultured under standard conditions and in exponential growth phase were seeded into a white 96-well microtiter plates. Transfection was carried out using a transfection reagent X-tremeGENE HP DNA in OptiMEM media for two hours. The ratio of reporter and control vector was 1:1 and the ratio of transfection reagent to the total amount of DNA was 1:1. Two hours after transfection helquats were added in a concentration of 50 μmol·l^−1. Quantity of firefly and Renilla luciferases in the samples was determined 24 hours after transfection. Dual luciferase analysis was performed using a commercially available kit (Promega, cat. No. E1960) according to manufacturer's instructions. Luminescence was measured using a luminometer EnSpire Alpha Plate Reader. The data obtained were normalized to the Renilla luciferase signal and then the values were related to control.

CCRF-CEM = experiment: XTT cytotoxicity/proliferation assay, CCRF-CEM; assay type: cell-based
Experimental: To assess the antiproliferative effects of the tested substances in vitro, tumor cell line CCRF-CEM derived from acute lymphoblastic leukemia and normal (healthy) HUVEC endothelial cells from umbilical vein were used. Both of these cell lines were cultured under optimal conditions for their growth in the appropriate medium in plastic bottles or plastic Petri dishes of various sizes (TPP, BD Biosciences) at 37° C., 5% CO2 and 95% humidity. HUVEC cells were purchased from BD Biosciences. CCRF-CEM cell line was obtained from ATCC/LGC Standards (American Type Cell Collection).
Suspension cell line CCRF-CEM is a continuous in vitro culture of acute lymphoblastic leukemia. Cell line CCRF-CEM was grown in RPMI 1640 medium (Sigma-Aldrich, cat. No. R8758) supplemented with 2 mmol·l^−1 glutamine (Invitrogen, cat. No. 35050-038), 10% fetal bovine serum (FBS; Sigma-Aldrich, cat. No. F9665), 100 IU/ml penicillin, 100 μg/ml streptomycin (Sigma-Aldrich, cat. No. P0781). Passaging was carried out 2-3 times a week. Population doubling time of CCRF-CEM cells under the used culture conditions is 20 hours.
For testing of the sensitivity of cell lines to studied helquats XTT cytotoxicity/proliferation assay for determination of cell viability was used. This method is based on the ability of metabolically active cells to reduce the yellow tetrazolium salt XTT to orange formazan. The rate of conversion is measured as the increase in absorbance at 492 nm and is proportional to the enzymatic activity of mitochondrial dehydrogenases and thus the number of metabolically active (viable) cells. The output is the IC50 value corresponding to the concentration of the test substance that causes a decrease in the number of viable cells by half (i.e. 50% slowdown of cell division) relative to the control, untreated population. Thus it reflects the effectiveness of the test substance towards the tested cell line.
Cells in exponential growth phase were plated into 96-well microtiter plate at a concentration of 3000 cells per well. Each well contained 90 μl of cell suspension. The following day, 10 μl of 10× concentrated test substances was added. Effect of helquats has been studied in the concentration range 1-100 μmol·l^−1 (or 1, 2.5, 5, 7.5, 10; 15; 25; 50 and 100 μmol·l^−1). In addition to the part of the plate containing the mentioned dilutions of test compounds there were always two control columns present, first column with medium alone (i.e. blank) and the second column with the cells in medium without test compounds (control). Into the blank and control wells the same volume of solvent (water) as the volume of the substances was added. After 72 hours of treatment with substances the measurement of viability was performed according to the manufacturer instructions. Briefly, into each well of a 96-well microtiter plate 50 μl of the prepared working solution of XTT (detection reagent) was added and then the microtiter plate was returned to the CO2 incubator. After 2 hours, the absorbance of each well at 492 nm (reference wavelength 690 nm) was measured using a multifunctional microplate reader (Tecan Genios, Austria).
The results of determination of the viability of cancer and normal cells after treatment with different concentrations of test substances are summarized in Table 9. […] Each concentration of a helquat was tested in triplicates within one IC50 value determination. Each of these IC50 value determinations was repeated in at least three independent experiments. Values above 100 μmol·l^−1 were obtained by extrapolation of data measured in the concentration range 0-100 μmol·l^−1 of helquats.

HUVEC = experiment: XTT cytotoxicity/proliferation assay, HUVEC; assay type: cell-based, human
Experimental: To assess the antiproliferative effects of the tested substances in vitro, tumor cell line CCRF-CEM derived from acute lymphoblastic leukemia and normal (healthy) HUVEC endothelial cells from umbilical vein were used. Both of these cell lines were cultured under optimal conditions for their growth in the appropriate medium in plastic bottles or plastic Petri dishes of various sizes (TPP, BD Biosciences) at 37° C., 5% CO2 and 95% humidity. HUVEC cells were purchased from BD Biosciences. CCRF-CEM cell line was obtained from ATCC/LGC Standards (American Type Cell Collection). Normal human endothelial cells from the umbilical vein are adherent cells, which were grown in plastic Petri dishes coated with collagen I. The culture medium (E-STIMTM; BD Biosciences, cat. […] Then, 5 ml of complete culture media E-STIM™ was added and the cells were centrifuged (180×g, 7 minutes), resuspended and transferred in a desired amount in a new Petri dish with fresh medium. In the experiments cells between passages 3 and 8 (after thawing) were used. Population doubling time of HUVEC cells under the used culture conditions is 38 hours. For testing of the sensitivity of cell lines to studied helquats XTT cytotoxicity/proliferation assay for determination of cell viability was used. This method is based on the ability of metabolically active cells to reduce the yellow tetrazolium salt XTT to orange formazan. The rate of conversion is measured as the increase in absorbance at 492 nm and is proportional to the enzymatic activity of mitochondrial dehydrogenases and thus the number of metabolically active (viable) cells. […] Thus it reflects the effectiveness of the test substance towards the tested cell line. Cells in exponential growth phase were plated into 96-well microtiter plate at a concentration of 3000 cells per well. Each well contained 90 μl of cell suspension. The following day, 10 μl of 10× concentrated test substances was added. […] In addition to the part of the plate containing the mentioned dilutions of test compounds there were always two control columns present, first column with medium alone (i.e. blank) and the second column with the cells in medium without test compounds (control). Into the blank and control wells the same volume of solvent (water) as the volume of the substances was added. After 72 hours of treatment with substances the measurement of viability was performed according to the manufacturer instructions. Briefly, into each well of a 96-well microtiter plate 50 μl of the prepared working solution of XTT (detection reagent) was added and then the microtiter plate was returned to the CO2 incubator. After 2 hours, the absorbance of each well at 492 nm (reference wavelength 690 nm) was measured using a multifunctional microplate reader (Tecan Genios, Austria).

[2] = helquat 50 μmol · l^−1, HGC-27, firefly normalized to Renilla, 24 hours after transfection
[3] = Homo sapiens, CCRF-CEM, 72 hours of treatment, read-out: IC50 CCRF CEM
[4] = Homo sapiens, CCRF-CEM, 72 hours, summary of table 9, read-out: concentrations toxic towards CCRF-CEM cells
[5] = Homo sapiens, HUVEC, 72 hours of treatment, values above 100 μmol·l^−1 obtained by extrapolation, read-out: IC50 HUVEC
[6] = Homo sapiens, HUVEC, 72 hours, summary of table 9, read-out: concentrations non-toxic towards HUVEC cells

Compound | inhibition at 50 µM [1] | activity at 50 µM [1, 2] | pIC50 (CCRF-CEM; [3]) | pIC50 (CCRF-CEM; [4]) | pIC50 (HUVEC; [5]) | pIC50 (HUVEC; [6]) | further results
2,13-bis((E)-2-(5-bromothiophen-2-yl)vinyl-8,9-dimethyl-6,7,10,11-tetrahydrodipyrido[2,1-a: 1′,2′-k][2,9]phenanthroline-5,12-diium trifluoromethanesulfonate [MJB-C5-3] |  |  |  |  |  |  | luciferase expression relative to control (control = 100%) [1, 2]: 65%
19-((E)-2-(7-methyl-1H-indol-3-yl)vinyl)-6,7,8,11,12,13-hexahydropyrido[1′,2′″:1″,2″]azepino[4″,3″:5′,6′]benzo[1′,2′:3,4]azepino[1,2-a]quinoline-5,14-diium trifluoromethanesulfonate [MSC-C10-31] |  |  |  |  |  |  | pIC50 (CCRF-CEM; 72 hours of treatment, read-out: IC50 CCRF CEM): 4.60 to 4.96; pIC50 (HUVEC; 72 hours of treatment, values above 100 μmol·l^−1 obtained by extrapolation, read-out: IC50 HUVEC): ≤ 4.29
C(=C\c1cc(/C=C/c2ccsc2)[n+]2c(c1)-c1c(ccc3c1-c1cccc[n+]1CC3)CC2)/c1ccsc1 [HTA-C5-9, 2,4-bis((E)-2-(thiophen-3-yl)vinyl)-6,7,10,11-tetrahydrodipyrido[2,1-a:1′,2′-k][2,9]phenanthroline-5,12-diium trifluoromethanesulfonate] | > 10% | 85% |  |  |  |  | 
Cc1c(C)c2c(c3c1CC[n+]1ccc(/C=C/c4c[nH]c5ccc(Br)cc45)cc1-3)-c1c3ccccc3cc[n+]1CC2 [MJA-C9-30, (E)-13-(2-(5-bromo-1H-indol-3-yl)vinyl)-6,7-dimethyl-4,5,8,9-tetrahydroisoquinolino[1,2-a]pyrido[1,2-k][2,9]phenanthroline-3,10-diium trifluoromethanesulfonate] | > 40% | 55% |  |  |  |  | 
Cc1c(C)c2c(c3c1CC[n+]1ccc(/C=C/c4ccc5oc6ccccc6c5c4)cc1-3)-c1c3ccccc3cc[n+]1CC2 [MJA-C13-22, (E)-13-(2-(dibenzo[b,d]furan-2-yl)vinyl)-6,7-dimethyl-4,5,8,9-tetrahydroisoquinolino[1,2-a]pyrido[1,2-k][2,9]phenanthroline-3,10-diium trifluoromethanesulfonate] |  |  | ≥ 5.00 | > 4.60 | ≤ 4.00 | < 4.00 | 
C(=C\c1cc(-c2ccccc2)cs1)/c1cc[n+]2c(c1)-c1c(ccc3c1-c1c4ccccc4cc[n+]1CC3)CC2 [MSB-C11-7, (E)-13-(2-(4-phenylthiophen-2-yl)vinyl)-4,5,8,9-tetrahydroisoquinolino[1,2-a]pyrido[1,2-k][2,9]phenanthroline-3,10-diium trifluoromethanesulfonate] |  |  | 4.60 to 4.96 | > 4.60 | ≤ 4.00 | < 4.00 | 
C(=C\c1c[nH]c2c1ccc1ccccc12)/c1cc[n+]2c(c1)-c1c(ccc3c1-c1c4ccccc4cc[n+]1CC3)CC2 [MSB-C13-16, (E)-13-(2-(1H-benzo[g]indol-3-yl)vinyl)-4,5,8,9-tetrahydroisoquinolino[1,2-a]pyrido[1,2-k][2,9]phenanthroline-3,10-diium trifluoromethanesulfonate] |  |  | 4.60 to 4.96 |  | ≤ 4.29 |  | 
C(=C\c1cc2ccccc2[n+]2c1-c1c(ccc3c1-c1cccc[n+]1CCC3)CCC2)/c1ccc2[nH]ccc2c1 [MSC-C9-10, 19-((E)-2-(1H-indol-5-yl)vinyl)-6,7,8,11,12,13-hexahydropyrido[1′″,2′″:1″,2″]azepino[4″,3″:5′,6′]benzo[1′,2′:3,4]azepino[1,2-a]quinoline-5,14-diium trifluoromethanesulfonate] | > 40% | 56% | ≥ 5.00 | > 4.60 | ≤ 4.00 | < 4.00 | 
Cc1c(C)c2c(c3c1CC[n+]1ccc4ccccc4c1-3)-c1cccc(/C=C/c3cccc4c3sc3ccccc34)[n+]1CC2 [VDJA-C13-20, (E)-11-(2-(dibenzo[b,d]thiophen-4-yl)vinyl)-6,7-dimethyl-4,5,8,9-tetrahydroisoquinolino[1,2-a]pyrido[1,2-k][2,9]phenanthroline-3,10-diium trifluoromethanesulfonate] |  |  | 4.60 to 4.96 | > 4.60 | ≤ 4.00 | < 4.00 | 
